Earlier results as cited in US20090111747A1, “Anti-Diabetic or Anti-Hypertensive Dietary Supplement” (priority 2005, published 2009).
Ends that are not written are not given here.

system: mammalian α-glucosidase; conditions: literature, Oki et al., 1999

Substance	inhibitory effect on mammalian α-glucosidase
Tyr-Tyr-Pro-Leu (YYPL; printed: Tyr-Tyr-Pro-Leu)	neither the hydrolysate nor the peptides had any significant inhibitory effect
Val-Trp	neither the hydrolysate nor the peptides had any significant inhibitory effect

system: rat intestinal α-glucosidase; conditions: literature, Inoue et al., 2000

Substance	activity against rat intestinal α-glucosidase
IISIGR	active against rat intestinal α-glucosidase
Ile-Ile-Ser-Ile-Gly (IISIG; printed: Ile-Ile-Ser-Ile-Gly)	active against rat intestinal α-glucosidase
VFIKAA	active against rat intestinal α-glucosidase
VFIKAAA	active against rat intestinal α-glucosidase
Val-Phe-Ile-Lys-Ala (VFIKA; printed: Val-Phe-Ile-Lys-Ala)	active against rat intestinal α-glucosidase
